# Experimental data from PMC5762309 (Oncotarget, 2017).
# Read-outs that look alike come from different tables or passages of the source.
# Key:
# KIT V559D/V654A = KIT V559D/V654A (Homo sapiens, UniProt P10721, V559D/V654A); assay: KIT auto-phosphorylation in transformed BaF3 cells; conditions: 2h
# SNARK = molecular target: T1, SNARK (Homo sapiens, UniProt Q9H093); assay: KINOMEScan; format: binding; design: dose or concentration left out as unconfirmed
# T1 construct: purchased DiscoverX KINOMEscan
# LZK = molecular target: T2, LZK (Homo sapiens, UniProt O43283); assay: KINOMEScan; format: binding; design: dose or concentration left out as unconfirmed
# T2 construct: purchased DiscoverX KINOMEscan
# T2 sequence (O43283 whole entry): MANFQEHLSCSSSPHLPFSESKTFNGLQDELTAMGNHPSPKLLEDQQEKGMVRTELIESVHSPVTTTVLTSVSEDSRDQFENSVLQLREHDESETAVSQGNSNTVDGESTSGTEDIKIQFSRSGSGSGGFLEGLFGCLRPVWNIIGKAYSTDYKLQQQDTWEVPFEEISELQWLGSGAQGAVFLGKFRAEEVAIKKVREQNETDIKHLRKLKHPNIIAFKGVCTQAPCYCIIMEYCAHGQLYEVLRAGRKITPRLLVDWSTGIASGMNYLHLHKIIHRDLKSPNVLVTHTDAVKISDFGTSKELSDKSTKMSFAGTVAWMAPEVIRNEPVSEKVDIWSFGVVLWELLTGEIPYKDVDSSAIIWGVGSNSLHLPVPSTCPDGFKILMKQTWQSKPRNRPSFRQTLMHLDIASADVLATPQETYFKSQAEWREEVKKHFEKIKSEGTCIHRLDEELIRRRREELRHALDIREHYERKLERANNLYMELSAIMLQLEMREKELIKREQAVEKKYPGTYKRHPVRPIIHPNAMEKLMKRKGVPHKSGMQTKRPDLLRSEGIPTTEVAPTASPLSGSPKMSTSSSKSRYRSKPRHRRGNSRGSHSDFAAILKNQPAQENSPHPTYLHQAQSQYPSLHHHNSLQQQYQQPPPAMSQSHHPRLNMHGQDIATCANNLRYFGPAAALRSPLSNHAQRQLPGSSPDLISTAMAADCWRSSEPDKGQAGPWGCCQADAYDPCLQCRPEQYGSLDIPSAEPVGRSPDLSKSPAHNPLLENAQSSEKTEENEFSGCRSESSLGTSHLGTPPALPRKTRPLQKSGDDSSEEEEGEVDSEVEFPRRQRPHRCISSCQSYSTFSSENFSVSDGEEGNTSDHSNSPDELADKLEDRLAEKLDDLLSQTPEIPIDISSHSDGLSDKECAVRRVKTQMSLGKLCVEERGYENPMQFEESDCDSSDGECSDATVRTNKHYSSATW
# LATS2 = molecular target: T3, LATS2 (Homo sapiens, UniProt Q9NRM7); assay: KINOMEScan; format: binding; design: dose or concentration left out as unconfirmed
# T3 construct: purchased DiscoverX KINOMEscan
# ITK = molecular target: T4, ITK (Homo sapiens, UniProt Q08881); assay: KINOMEScan; format: binding; design: dose or concentration left out as unconfirmed
# T4 construct: purchased DiscoverX KINOMEscan
# T4 sequence (Q08881 whole entry): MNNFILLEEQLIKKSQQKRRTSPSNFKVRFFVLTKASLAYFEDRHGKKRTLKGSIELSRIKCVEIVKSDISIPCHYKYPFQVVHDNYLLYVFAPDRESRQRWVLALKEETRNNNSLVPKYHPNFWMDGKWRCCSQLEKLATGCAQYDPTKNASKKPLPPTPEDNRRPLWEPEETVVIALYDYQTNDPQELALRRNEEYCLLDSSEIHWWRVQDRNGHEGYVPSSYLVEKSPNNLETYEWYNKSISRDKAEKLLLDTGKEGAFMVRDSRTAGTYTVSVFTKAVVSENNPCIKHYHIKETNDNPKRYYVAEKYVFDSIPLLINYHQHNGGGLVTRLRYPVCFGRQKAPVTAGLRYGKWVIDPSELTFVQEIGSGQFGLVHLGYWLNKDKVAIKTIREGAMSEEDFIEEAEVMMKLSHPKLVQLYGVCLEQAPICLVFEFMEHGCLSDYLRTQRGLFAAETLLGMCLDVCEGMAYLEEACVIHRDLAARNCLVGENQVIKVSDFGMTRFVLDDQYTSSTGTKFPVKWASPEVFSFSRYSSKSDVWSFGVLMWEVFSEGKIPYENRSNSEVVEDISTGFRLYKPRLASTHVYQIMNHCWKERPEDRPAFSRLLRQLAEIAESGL
# JNK2 = molecular target: T5, JNK2 (Homo sapiens, UniProt P45984); assay: KINOMEScan; format: binding; design: dose or concentration left out as unconfirmed
# T5 construct: purchased DiscoverX KINOMEscan
# 468 kinases/mutants = assay: KINOMEScan kinome-wide selectivity S score; format: binding; conditions: 1 μM
# Text: (§1) Then we used the DiscoverX’s KINOMEScan platform to further examine CHMFL-KIT-031’s kinome-wide selectivity profile. […] Besides the strong binding to V559D, it also bound strongly to KIT wt, L576P and A829P.
# PIKFYVE = molecular target: T6, PIKFYVE (Homo sapiens, UniProt Q9Y2I7); assay: KINOMEScan; format: binding; design: dose or concentration left out as unconfirmed
# T6 construct: purchased DiscoverX KINOMEscan
# PLK2 = molecular target: T7, PLK2 (Homo sapiens, UniProt Q9NYY3); assay: KINOMEScan; format: binding; design: dose or concentration left out as unconfirmed
# T7 construct: purchased DiscoverX KINOMEscan
# [1] = tested on: BaF3-TEL-KIT-V559D tumors; assay: BaF3-TEL-KIT-V559D allograft model
# [2] = molecular target: T8, JAK2(JH1domain-catalytic) (Homo sapiens, UniProt O60674); assay: KINOMEScan; format: binding; design: dose or concentration left out as unconfirmed
# T8 construct: JAK2(JH1domain-catalytic); purchased DiscoverX KINOMEscan
# T8 sequence (O60674 849-1132 limits assumed): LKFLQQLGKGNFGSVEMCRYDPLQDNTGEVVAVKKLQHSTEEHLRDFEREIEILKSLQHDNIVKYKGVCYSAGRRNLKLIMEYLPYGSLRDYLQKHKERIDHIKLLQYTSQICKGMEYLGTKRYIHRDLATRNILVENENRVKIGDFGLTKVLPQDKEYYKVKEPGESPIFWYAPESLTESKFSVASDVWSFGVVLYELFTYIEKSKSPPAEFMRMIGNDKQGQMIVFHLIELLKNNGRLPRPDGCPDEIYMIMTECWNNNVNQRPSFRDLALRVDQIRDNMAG
# PFTK1 = molecular target: T9, PFTK1 (Homo sapiens, UniProt O94921); assay: KINOMEScan; format: binding; design: dose or concentration left out as unconfirmed
# T9 construct: purchased DiscoverX KINOMEscan
# T9 sequence (O94921 whole entry): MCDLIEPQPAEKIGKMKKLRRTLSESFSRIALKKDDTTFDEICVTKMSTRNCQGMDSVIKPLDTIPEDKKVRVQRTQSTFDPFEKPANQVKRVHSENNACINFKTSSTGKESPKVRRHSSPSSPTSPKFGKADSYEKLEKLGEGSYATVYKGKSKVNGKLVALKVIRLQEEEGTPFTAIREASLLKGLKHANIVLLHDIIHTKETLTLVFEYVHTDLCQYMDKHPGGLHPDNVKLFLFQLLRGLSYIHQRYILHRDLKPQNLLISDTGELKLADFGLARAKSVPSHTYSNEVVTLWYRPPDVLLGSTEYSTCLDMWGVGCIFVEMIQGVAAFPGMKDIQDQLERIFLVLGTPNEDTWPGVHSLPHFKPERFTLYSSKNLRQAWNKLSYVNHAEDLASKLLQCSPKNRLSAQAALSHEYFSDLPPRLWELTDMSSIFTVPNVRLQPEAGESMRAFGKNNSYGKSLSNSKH
# PRKR = molecular target: T10, PRKR (Homo sapiens, UniProt P19525); assay: KINOMEScan; format: binding; design: dose or concentration left out as unconfirmed
# T10 construct: purchased DiscoverX KINOMEscan
# CSK = molecular target: T11, CSK (Homo sapiens, UniProt P41240); assay: KINOMEScan; format: binding; design: dose or concentration left out as unconfirmed
# T11 construct: purchased DiscoverX KINOMEscan
# T11 sequence (P41240 whole entry): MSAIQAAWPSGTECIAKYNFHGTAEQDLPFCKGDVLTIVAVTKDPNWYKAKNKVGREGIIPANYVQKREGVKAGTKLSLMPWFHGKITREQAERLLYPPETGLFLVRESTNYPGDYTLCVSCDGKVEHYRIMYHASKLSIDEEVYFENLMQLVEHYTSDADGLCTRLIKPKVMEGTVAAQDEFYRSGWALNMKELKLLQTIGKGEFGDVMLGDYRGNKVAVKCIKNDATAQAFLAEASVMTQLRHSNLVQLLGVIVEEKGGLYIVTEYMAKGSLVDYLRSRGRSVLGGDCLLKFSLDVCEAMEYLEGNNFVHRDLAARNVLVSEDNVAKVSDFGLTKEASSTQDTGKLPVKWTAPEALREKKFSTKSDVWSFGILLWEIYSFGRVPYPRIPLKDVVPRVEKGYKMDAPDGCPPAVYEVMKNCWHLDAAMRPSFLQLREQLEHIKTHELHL
# [3] = molecular target: T12, EGFR(L747-E749del, A750P) (Homo sapiens, UniProt P00533, A750P/DEL747-749); assay: KINOMEScan; format: binding; design: dose or concentration left out as unconfirmed
# T12 construct: purchased DiscoverX KINOMEscan
# T12 sequence (P00533 with tags, fused parts or gaps DEL747-749/A750P limits assumed): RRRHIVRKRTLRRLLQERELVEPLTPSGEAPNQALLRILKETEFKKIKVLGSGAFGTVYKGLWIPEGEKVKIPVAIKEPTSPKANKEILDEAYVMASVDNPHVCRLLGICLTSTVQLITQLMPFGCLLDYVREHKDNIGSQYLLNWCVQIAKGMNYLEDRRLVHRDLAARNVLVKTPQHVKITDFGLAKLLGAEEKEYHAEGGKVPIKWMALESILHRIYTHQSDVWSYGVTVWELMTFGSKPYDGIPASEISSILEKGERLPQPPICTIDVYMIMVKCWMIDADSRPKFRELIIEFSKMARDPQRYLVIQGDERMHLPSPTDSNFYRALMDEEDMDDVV
# MET = molecular target: T13, MET (Homo sapiens, UniProt P08581); assay: KINOMEScan; format: binding; design: dose or concentration left out as unconfirmed
# T13 construct: purchased DiscoverX KINOMEscan
# FLT3(ITD) = assay: KINOMEScan; format: binding; design: dose or concentration left out as unconfirmed
# KIT N822K = KIT N822K (Homo sapiens, UniProt P10721, N822K); assay: KIT auto-phosphorylation in transformed BaF3 cells
# Sequence of KIT N822K (P10721 26-976 N822K): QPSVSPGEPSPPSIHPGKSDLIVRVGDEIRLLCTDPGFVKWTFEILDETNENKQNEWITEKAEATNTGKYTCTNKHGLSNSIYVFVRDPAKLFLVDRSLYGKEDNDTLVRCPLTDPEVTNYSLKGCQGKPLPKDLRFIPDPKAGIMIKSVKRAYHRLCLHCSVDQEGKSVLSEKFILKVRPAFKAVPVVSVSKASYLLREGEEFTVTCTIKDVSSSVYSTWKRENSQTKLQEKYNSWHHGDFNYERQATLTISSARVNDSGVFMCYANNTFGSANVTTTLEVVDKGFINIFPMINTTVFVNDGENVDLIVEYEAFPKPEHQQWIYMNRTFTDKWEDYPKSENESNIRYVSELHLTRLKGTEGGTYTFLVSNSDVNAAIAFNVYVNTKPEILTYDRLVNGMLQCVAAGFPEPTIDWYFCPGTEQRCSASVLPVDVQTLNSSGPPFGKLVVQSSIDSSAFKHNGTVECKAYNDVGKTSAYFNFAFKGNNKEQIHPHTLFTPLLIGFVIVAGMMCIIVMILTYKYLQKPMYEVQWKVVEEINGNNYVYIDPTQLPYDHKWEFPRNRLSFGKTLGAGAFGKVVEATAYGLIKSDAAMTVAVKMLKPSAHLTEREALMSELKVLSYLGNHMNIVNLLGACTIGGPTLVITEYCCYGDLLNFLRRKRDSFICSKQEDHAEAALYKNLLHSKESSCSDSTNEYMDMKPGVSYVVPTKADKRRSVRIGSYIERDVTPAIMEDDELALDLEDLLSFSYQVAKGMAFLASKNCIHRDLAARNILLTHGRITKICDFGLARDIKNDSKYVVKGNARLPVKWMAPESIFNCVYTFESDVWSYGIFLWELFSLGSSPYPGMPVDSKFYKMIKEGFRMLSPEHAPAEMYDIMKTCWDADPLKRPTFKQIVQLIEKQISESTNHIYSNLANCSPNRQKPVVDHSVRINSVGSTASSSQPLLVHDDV
# EPHA5 = molecular target: T14, EPHA5 (Homo sapiens, UniProt P54756); assay: KINOMEScan; format: binding; design: dose or concentration left out as unconfirmed
# T14 construct: purchased DiscoverX KINOMEscan
# KIT wt [4] = molecular target: T15, KIT wt (Homo sapiens, UniProt P10721); assay: ADP-Glo biochemical assay; design: wt KIT residues 544-935 with a His tag; His tag; made in house; host or cells: SF9 insect cells (baculovirus); conditions: purified kinase protein, 100 μM ATP
# Target sequence in this assay (P10721 544-935): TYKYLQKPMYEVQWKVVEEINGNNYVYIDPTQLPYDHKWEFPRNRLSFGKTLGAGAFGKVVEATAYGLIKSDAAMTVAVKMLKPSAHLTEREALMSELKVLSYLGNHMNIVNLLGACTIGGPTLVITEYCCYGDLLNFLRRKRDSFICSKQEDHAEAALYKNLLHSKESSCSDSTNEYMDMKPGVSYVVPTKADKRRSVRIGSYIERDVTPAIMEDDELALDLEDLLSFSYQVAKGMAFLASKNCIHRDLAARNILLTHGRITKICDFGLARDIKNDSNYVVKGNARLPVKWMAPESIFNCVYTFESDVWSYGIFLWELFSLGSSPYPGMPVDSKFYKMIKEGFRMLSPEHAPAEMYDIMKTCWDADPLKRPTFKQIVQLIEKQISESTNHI
# [5] = molecular target: T16, TYK2(JH2domain-pseudokinase) (Homo sapiens, UniProt P29597); assay: KINOMEScan; format: binding; design: dose or concentration left out as unconfirmed
# T16 construct: TYK2(JH2domain-pseudokinase); purchased DiscoverX KINOMEscan
# MST1 = molecular target: T17, MST1 (Homo sapiens, UniProt Q13043); assay: KINOMEScan; format: binding; design: dose or concentration left out as unconfirmed
# T17 construct: purchased DiscoverX KINOMEscan
# [6] = molecular target: T18, EGFR(L747-S752del, P753S) (Homo sapiens, UniProt P00533, DEL747-752/P753S); assay: KINOMEScan; format: binding; design: dose or concentration left out as unconfirmed
# T18 construct: purchased DiscoverX KINOMEscan
# KIT wt [7] = molecular target: T15, KIT wt; assay: KIT auto-phosphorylation in parental Colo320DM cells; format: cell-based; design: Colo320DM cells which express wt KIT kinase; endogenous in cells; host or cells: Colo320DM, SCF-stimulated
# Text: In order to better define CHMFL-KIT-031’s inhibitory effect against KIT V559D mutant, we then tested it with purified KIT wt/V559D kinase protein by ADP-Glo assay (Figure 2A). […] We also transformed and overexpressed KIT V559D transiently into Colo320DM cells which express wt KIT kinase and tested CHMFL-KIT-031’s inhibitory effects for the auto-phosphorylation of KIT Y703, 719 and Y823 sites.
# Target sequence in this assay (P10721 26-976): as the sequence (P10721 26-976 N822K) above, with K797N counted along it
# CDC2L5 = molecular target: T19, CDC2L5 (Homo sapiens, UniProt Q14004); assay: KINOMEScan; format: binding; conditions: Concentrations 1 µM
# T19 construct: purchased DiscoverX KINOMEscan
# Text: as §1
# MET(M1250T) = molecular target: T20, MET(M1250T) (Homo sapiens, UniProt P08581, M1250T); assay: KINOMEScan; format: binding; design: dose or concentration left out as unconfirmed
# T20 construct: purchased DiscoverX KINOMEscan
# CSNK1G3 = molecular target: T21, CSNK1G3 (Homo sapiens, UniProt Q9Y6M4); assay: KINOMEScan; format: binding; design: dose or concentration left out as unconfirmed
# T21 construct: purchased DiscoverX KINOMEscan
# Sequence of KIT V559D/V654A (P10721 546-976 V559D/V654A): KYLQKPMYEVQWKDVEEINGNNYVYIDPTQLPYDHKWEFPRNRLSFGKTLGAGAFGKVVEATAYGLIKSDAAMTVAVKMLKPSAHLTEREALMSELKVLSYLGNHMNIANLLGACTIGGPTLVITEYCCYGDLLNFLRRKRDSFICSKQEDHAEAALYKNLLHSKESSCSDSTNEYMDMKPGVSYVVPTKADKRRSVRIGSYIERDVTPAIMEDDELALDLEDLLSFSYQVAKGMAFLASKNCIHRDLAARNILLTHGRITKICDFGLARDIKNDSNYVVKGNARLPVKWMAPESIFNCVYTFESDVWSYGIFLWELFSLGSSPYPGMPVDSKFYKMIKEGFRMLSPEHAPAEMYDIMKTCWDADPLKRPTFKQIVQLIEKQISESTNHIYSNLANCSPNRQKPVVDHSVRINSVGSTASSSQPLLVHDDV
compound,measurement,setting,value
COc1cc(C(=O)NCC(=O)Nc2ccc3c(/C=C/c4ccccn4)n[nH]c3c2)cc(OC)c1OC [CHMFL-KIT-031],EC50,KIT V559D/V654A; EC50 pY703 auto-phosphorylation,5.6 µM
same,EC50,KIT V559D/V654A; EC50 pY719 auto-phosphorylation,0.863 µM
same,EC50,KIT V559D/V654A; EC50 pY823 auto-phosphorylation,5.4 µM
same,KINOMEScan profiling value,SNARK,100
same,KINOMEScan profiling value,LZK,100
same,KINOMEScan profiling value,LATS2,100
same,KINOMEScan profiling value,ITK,96
same,KINOMEScan profiling value,JNK2,92
same,S score (1),468 kinases/mutants,0.01
same,KINOMEScan profiling value,PIKFYVE,87
same,KINOMEScan profiling value,PLK2,100
same,TGI,"[1]; 100mg/kg/d IP, 10 days",68.5%
same,"KIT, AKT, S6 and STAT3 phosphorylation in tumor tissue","[1]; starting from 50 mg/kg, Western blot after 10-day treatment",significantly affect
same,KINOMEScan profiling value,[2],100
same,KINOMEScan profiling value,PFTK1,100
same,KINOMEScan profiling value,PRKR,97
same,KINOMEScan profiling value,CSK,87
same,KINOMEScan profiling value,[3],100
same,KINOMEScan profiling value,MET,100
same,KINOMEScan profiling value,FLT3(ITD),44
same,EC50,KIT N822K,> 10 µM
same,EC50,"KIT N822K; read-out: EC50 pY719 auto-phosphorylation, KIT N822K transformed BaF3 cells, 2h",> 10 µM
same,EC50,"KIT N822K; read-out: EC50 pY823 auto-phosphorylation, KIT N822K transformed BaF3 cells, 2h",> 10 µM
same,KINOMEScan profiling value,EPHA5,100
same,IC50,KIT wt [4],0.168 µM
same,KINOMEScan profiling value,[5],100
same,KINOMEScan profiling value,MST1,89
same,KINOMEScan profiling value,[6],100
same,EC50,"KIT wt [7]; COLO 320DM (KIT wt), SCF stimulation, read-out: EC50 P-CKIT Y719",5.62 µM
same,EC50,"KIT wt [7]; COLO 320DM (KIT wt), SCF stimulation, read-out: EC50 P-CKIT Y823",9.7 µM
same,EC50,"KIT wt [7]; in cell, KIT wt, read-out: EC50 pY703",2 µM
same,KINOMEScan profiling value,CDC2L5,97
same,KINOMEScan profiling value,MET(M1250T),100
same,KINOMEScan profiling value,CSNK1G3,99
